In the experiment the test system is MV-4-11 cells. As to the kind of experiment: Gene expression microarray analysis (Affymetrix PrimeView) and GSEA. Format: cell-based, human. On the set-up: RFU PODN (11730768_x_at) / Fold change /veh PODN (11730768_x_at) / RFU LINC00158 (11744669_a_at) / Fold change /veh LINC00158 (11744669_a_at) / RFU DUSP10 (11751237_a_at) / Fold change /veh DUSP10 (11751237_a_at) / RFU ID3 (11757404_x_at) / Fold change /veh ID3 (11757404_x_at) / RFU PLEKHG5 (11737974_s_at) / Fold change /veh PLEKHG5 (11737974_s_at) / RFU LRRC4B (11730491_at) / Fold change /veh LRRC4B (11730491_at) / RFU GIMAP4 (11747438_a_at) / Fold change /veh GIMAP4 (11747438_a_at) / RFU KRT8 (11758183_x_at) / Fold change /veh KRT8 (11758183_x_at) / RFU CNN1 (11734310_a_at) / Fold change /veh CNN1 (11734310_a_at) / RFU VPS37D (11726825_at) / Fold change /veh VPS37D (11726825_at) / RFU C10orf10 (11716522_x_at) / Fold change /veh C10orf10 (11716522_x_at) / RFU KIR2DL2 /// KIR2DL4 /// KIR2DL5A /// KIR2DL5B /// KIR2DS1 /// KIR2DS2 /// KIR2DS3 /// KIR2DS4 /// KIR3DL3 /// KIR3DL3 /// KIR3DS1 (11738374_at) / Fold change /veh KIR2DL2 /// KIR2DL4 /// KIR2DL5A /// KIR2DL5B /// KIR2DS1 /// KIR2DS2 /// KIR2DS3 /// KIR2DS4 /// KIR3DL3 /// KIR3DL3 /// KIR3DS1 (11738374_at) / RFU C1QL1 (11718748_at) / Fold change /veh C1QL1 (11718748_at) / RFU TMPRSS4 (11747572_a_at) / Fold change /veh TMPRSS4 (11747572_a_at) / RFU HAMP (11756126_x_at) / Fold change /veh HAMP (11756126_x_at) / RFU RNFT2 (11725882_a_at) / Fold change /veh RNFT2 (11725882_a_at) / RFU NR4A2 (11747474_a_at) / Fold change /veh NR4A2 (11747474_a_at) / RFU ABCC12 (11746883_a_at) / Fold change /veh ABCC12 (11746883_a_at) / RFU TMEM136 (11760407_x_at) / Fold change /veh TMEM136 (11760407_x_at) / RFU CLDN22 /// WWC2 (11732394_at) / Fold change /veh CLDN22 /// WWC2 (11732394_at) / RFU HLA-DPB1 (11760878_x_at) / Fold change /veh HLA-DPB1 (11760878_x_at) / RFU SPINT1 (11716480_a_at) / Fold change /veh SPINT1 (11716480_a_at) / RFU GAP43 (11754022_s_at) / Fold change /veh GAP43 (11754022_s_at) / RFU A4GNT (11735810_at) / Fold change /veh A4GNT (11735810_at) / RFU PRB3 (11715151_x_at) / Fold change /veh PRB3 (11715151_x_at) / RFU TUBB4B (11761932_at) / Fold change /veh TUBB4B (11761932_at) / RFU CAPN14 (11732068_a_at) / Fold change /veh CAPN14 (11732068_a_at) / RFU TMCC2 (11721928_a_at) / Fold change /veh TMCC2 (11721928_a_at) / RFU IRGQ (11745062_a_at) / Fold change /veh IRGQ (11745062_a_at) / RFU FAM174B (11720279_a_at) / Fold change /veh FAM174B (11720279_a_at) / RFU TMPRSS4 (11748680_a_at) / Fold change /veh TMPRSS4 (11748680_a_at) / RFU FAM212B (11763350_a_at) / Fold change /veh FAM212B (11763350_a_at) / RFU PLEKHG5 (11743358_a_at) / Fold change /veh PLEKHG5 (11743358_a_at) / RFU ZSCAN30 (11745921_a_at) / Fold change /veh ZSCAN30 (11745921_a_at) / RFU CMKLR1 (11741424_a_at) / Fold change /veh CMKLR1 (11741424_a_at) / RFU LOC101060620 /// MAPK8IP1 (11723275_at) / Fold change /veh LOC101060620 /// MAPK8IP1 (11723275_at) / RFU SPTSSB (11747773_x_at) / Fold change /veh SPTSSB (11747773_x_at) / RFU PRSS12 (11739890_at) / Fold change /veh PRSS12 (11739890_at) / RFU BIN1 (11741810_x_at) / Fold change /veh BIN1 (11741810_x_at) / RFU WNT11 (11732464_a_at) / Fold change /veh WNT11 (11732464_a_at) / RFU C10orf10 (11716521_a_at) / Fold change /veh C10orf10 (11716521_a_at) / RFU C5orf56 (11738089_at) / Fold change /veh C5orf56 (11738089_at) / RFU CYB561 (11721691_x_at) / Fold change /veh CYB561 (11721691_x_at) / RFU ANKRD19P (11752326_a_at) / Fold change /veh ANKRD19P (11752326_a_at) / RFU OR2T12 /// OR2T33 /// OR2T8 (11738714_s_at) / Fold change /veh OR2T12 /// OR2T33 /// OR2T8 (11738714_s_at) / RFU VCAN (11748164_a_at) / Fold change /veh VCAN (11748164_a_at) / RFU JSRP1 (11732532_at) / Fold change /veh JSRP1 (11732532_at) / RFU KRTAP10-11 (11738290_x_at) / Fold change /veh KRTAP10-11 (11738290_x_at) / RFU MYO3A (11730013_a_at) / Fold change /veh MYO3A (11730013_a_at) / RFU EBF3 (11725865_a_at) / Fold change /veh EBF3 (11725865_a_at) / RFU CAMK2N1 (11719241_x_at) / Fold change /veh CAMK2N1 (11719241_x_at) / RFU C5orf56 (11738088_a_at) / Fold change /veh C5orf56 (11738088_a_at) / RFU OLFML3 (11715873_a_at) / Fold change /veh OLFML3 (11715873_a_at) / RFU LOC100653217 /// NTM (11731650_a_at) / Fold change /veh LOC100653217 /// NTM (11731650_a_at) / RFU MAPK11 (11762145_a_at) / Fold change /veh MAPK11 (11762145_a_at) / RFU FIZ1 (11724087_x_at) / Fold change /veh FIZ1 (11724087_x_at) / RFU OASL (11726364_x_at) / Fold change /veh OASL (11726364_x_at) / RFU SOX15 (11748057_x_at) / Fold change /veh SOX15 (11748057_x_at) / RFU CD79A (11719716_a_at) / Fold change /veh CD79A (11719716_a_at) / RFU HIST1H1D (11736915_at) / Fold change /veh HIST1H1D (11736915_at) / RFU CASKIN2 (11723855_a_at) / Fold change /veh CASKIN2 (11723855_a_at) / RFU LOC730098 (11760151_x_at) / Fold change /veh LOC730098 (11760151_x_at) / RFU OR4N2 (11742367_at) / Fold change /veh OR4N2 (11742367_at) / RFU PRRT2 (11749266_a_at) / Fold change /veh PRRT2 (11749266_a_at) / RFU SNX32 (11753110_a_at) / Fold change /veh SNX32 (11753110_a_at) / RFU CDHR5 (11726645_a_at) / Fold change /veh CDHR5 (11726645_a_at) / RFU RCAN1 (11760418_a_at) / Fold change /veh RCAN1 (11760418_a_at) / RFU FAM167A (11723789_a_at) / Fold change /veh FAM167A (11723789_a_at) / RFU FAM26E (11764081_at) / Fold change /veh FAM26E (11764081_at) / RFU ISYNA1 (11749810_s_at) / Fold change /veh ISYNA1 (11749810_s_at) / RFU ACY1 (11761880_at) / Fold change /veh ACY1 (11761880_at) / RFU 11764098_at / Fold change /veh 11764098_at / RFU SAMD14 (11745864_x_at) / Fold change /veh SAMD14 (11745864_x_at) / RFU NPB (11741838_a_at) / Fold change /veh NPB (11741838_a_at) / RFU TMPRSS6 (11731388_a_at) / Fold change /veh TMPRSS6 (11731388_a_at) / RFU KRTAP10-2 (11738614_at) / Fold change /veh KRTAP10-2 (11738614_at) / RFU ARHGAP8 /// PRR5-ARHGAP8 (11727945_x_at) / Fold change /veh ARHGAP8 /// PRR5-ARHGAP8 (11727945_x_at) / RFU KRTAP5-7 /// NADSYN1 (11734609_at) / Fold change /veh KRTAP5-7 /// NADSYN1 (11734609_at) / RFU RASL12 (11751679_a_at) / Fold change /veh RASL12 (11751679_a_at) / RFU CDKN2B (11736163_a_at) / Fold change /veh CDKN2B (11736163_a_at) / RFU PRF1 (11729649_at) / Fold change /veh PRF1 (11729649_at) / RFU, ZNF638 /// ZNF638-IT1 / Fold change vs veh, ZNF638 /// ZNF638-IT1 / RFU, PANK3 / Fold change vs veh, PANK3 / RFU, SH3YL1 / Fold change vs veh, SH3YL1 / RFU, ZEB2 / Fold change vs veh, ZEB2 / RFU, NRIP1 / Fold change vs veh, NRIP1 / RFU, PTTG1IP / Fold change vs veh, PTTG1IP / RFU, CAPN2 / Fold change vs veh, CAPN2 / RFU, MED14 / Fold change vs veh, MED14 / RFU, SNORA58 / Fold change vs veh, SNORA58 / RFU, C1orf63 / Fold change vs veh, C1orf63 / RFU, LRRFIP1 / Fold change vs veh, LRRFIP1 / RFU, NDUFAF7 / Fold change vs veh, NDUFAF7 / RFU, SLC12A2 / Fold change vs veh, SLC12A2 / RFU, IBTK / Fold change vs veh, IBTK / RFU, ESF1 / Fold change vs veh, ESF1 / Fold change vs veh, TMEM50B / RFU, TAOK1 / Fold change vs veh, TAOK1 / RFU, ACBD3 / Fold change vs veh, ACBD3 / RFU, TMA16 / Fold change vs veh, TMA16 / RFU, RWDD3 / Fold change vs veh, RWDD3 / RFU, BCAT1 / Fold change vs veh, BCAT1 / RFU, EDEM3 / Fold change vs veh, EDEM3 / RFU, TMEM33 / Fold change vs veh, TMEM33 / RFU, WDR75 / Fold change vs veh, WDR75 / RFU, AHCTF1 / Fold change vs veh, AHCTF1 / RFU, TFRC / Fold change vs veh, TFRC / RFU, ZDHHC17 / Fold change vs veh, ZDHHC17 / RFU, NOM1 / Fold change vs veh, NOM1 / RFU, ARL8B / Fold change vs veh, ARL8B / RFU, ZBTB11 / Fold change vs veh, ZBTB11 / RFU, TAMM41 / Fold change vs veh, TAMM41 / RFU, KIAA1704 /// LOC100996395 / Fold change vs veh, KIAA1704 /// LOC100996395 / RFU, ING1 / Fold change vs veh, ING1 / RFU, TRMT61B / Fold change vs veh, TRMT61B / RFU, FUBP3 / Fold change vs veh, FUBP3 / RFU, TP53 / Fold change vs veh, TP53 / RFU, TNKS2 / Fold change vs veh, TNKS2 / RFU, ZFP14 / Fold change vs veh, ZFP14 / RFU, ACTR2 / Fold change vs veh, ACTR2 / RFU, PPP3R1 / Fold change vs veh, PPP3R1 / RFU, PIK3R1 / Fold change vs veh, PIK3R1 / RFU, HNRNPA1 / Fold change vs veh, HNRNPA1 / RFU, RNF170 / Fold change vs veh, RNF170 / RFU, ZNF28 / Fold change vs veh, ZNF28 / RFU, RNGTT / Fold change vs veh, RNGTT / RFU, OGT / Fold change vs veh, OGT / RFU, BRD1 / Fold change vs veh, BRD1 / RFU, MARS / Fold change vs veh, MARS / RFU, ZNF655 / Fold change vs veh, ZNF655 / RFU, FAHD1 / Fold change vs veh, FAHD1 / RFU, BDP1 / Fold change vs veh, BDP1 / RFU, LRRCC1 / Fold change vs veh, LRRCC1 / RFU, ARID1A / Fold change vs veh, ARID1A / RFU, ZNF146 / Fold change vs veh, ZNF146 / RFU, ZNF330 / Fold change vs veh, ZNF330 / RFU, GPN3 / Fold change vs veh, GPN3 / RFU, C9orf123 / Fold change vs veh, C9orf123 / RFU, N4BP2L2 / Fold change vs veh, N4BP2L2 / RFU, ARFIP1 / Fold change vs veh, ARFIP1 / RFU, FAM179B / Fold change vs veh, FAM179B / RFU, BCL10 / Fold change vs veh, BCL10 / RFU, UHRF1BP1L / Fold change vs veh, UHRF1BP1L / RFU, BET1 / Fold change vs veh, BET1 / RFU, CNOT2 / Fold change vs veh, CNOT2 / RFU, ZNF268 / Fold change vs veh, ZNF268 / Fold change vs veh, ZNF507 / RFU, DGCR2 / Fold change vs veh, DGCR2 / RFU, WDSUB1 / Fold change vs veh, WDSUB1 / Fold change vs veh, HSP90B1 /// MIR3652 / RFU, ADSS / Fold change vs veh, ADSS / RFU, GK / Fold change vs veh, GK / RFU, ZNF148 / Fold change vs veh, ZNF148 / RFU, TAF9 / Fold change vs veh, TAF9 / RFU, SLC1A5 / Fold change vs veh, SLC1A5 / RFU, SLMO2 / Fold change vs veh, SLMO2 / RFU, ABCC4 / Fold change vs veh, ABCC4 / RFU, LOC101060439 /// RAP1B / Fold change vs veh, LOC101060439 /// RAP1B / RFU, RFX7 / Fold change vs veh, RFX7 / RFU, GTPBP10 / Fold change vs veh, GTPBP10 / RFU, CNEP1R1 / Fold change vs veh, CNEP1R1 / RFU, BIVM-ERCC5 /// ERCC5 / Fold change vs veh, BIVM-ERCC5 /// ERCC5 / RFU, ILF3 / Fold change vs veh, ILF3 / RFU 11762660_at / Fold change /veh 11762660_at / RFU VCAN (11757783_s_at) / Fold change /veh VCAN (11757783_s_at) / RFU DDX43 (11728927_at) / Fold change /veh DDX43 (11728927_at) / RFU KRT8 (11758188_x_at) / Fold change /veh KRT8 (11758188_x_at) / RFU NKD1 (11759106_at) / Fold change /veh NKD1 (11759106_at) / RFU SRD5A1 (11742802_a_at) / Fold change /veh SRD5A1 (11742802_a_at) / RFU TPSAB1 /// TPSB2 (11721975_s_at) / Fold change /veh TPSAB1 /// TPSB2 (11721975_s_at) / RFU GSTM3 (11746129_a_at) / Fold change /veh GSTM3 (11746129_a_at) / RFU IL23R (11737362_x_at) / Fold change /veh IL23R (11737362_x_at) / RFU TMEM51 (11727254_a_at) / Fold change /veh TMEM51 (11727254_a_at) / RFU PIWIL2 (11732686_x_at) / Fold change /veh PIWIL2 (11732686_x_at) / RFU ORM1 (11744905_x_at) / Fold change /veh ORM1 (11744905_x_at) / RFU CCDC152 (11743942_at) / Fold change /veh CCDC152 (11743942_at) / RFU ECM1 (11717891_a_at) / Fold change /veh ECM1 (11717891_a_at) / RFU IL23R (11748794_a_at) / Fold change /veh IL23R (11748794_a_at) / RFU TNFAIP8L3 (11732012_x_at) / Fold change /veh TNFAIP8L3 (11732012_x_at) / RFU MBOAT4 (11741988_at) / Fold change /veh MBOAT4 (11741988_at) / RFU 11764193_at / Fold change /veh 11764193_at / RFU TMEM53 (11763286_at) / Fold change /veh TMEM53 (11763286_at) / RFU MAGEB2 (11727129_at) / Fold change /veh MAGEB2 (11727129_at) / RFU TMEM200A (11744735_a_at) / Fold change /veh TMEM200A (11744735_a_at) / RFU CCDC152 (11751479_a_at) / Fold change /veh CCDC152 (11751479_a_at) / RFU FAM211A (11726209_a_at) / Fold change /veh FAM211A (11726209_a_at) / RFU RGS16 (11746705_a_at) / Fold change /veh RGS16 (11746705_a_at) / RFU VCAN (11755009_s_at) / Fold change /veh VCAN (11755009_s_at) / RFU RHOB (11743442_s_at) / Fold change /veh RHOB (11743442_s_at) / RFU RGS16 (11720943_a_at) / Fold change /veh RGS16 (11720943_a_at) / RFU RGS16 (11720944_at) / Fold change /veh RGS16 (11720944_at) / RFU, VPS4B / Fold change vs veh, VPS4B / RFU, CREB1 / Fold change vs veh, CREB1 / RFU, DNAJC13 / Fold change vs veh, DNAJC13 / RFU, GNAQ / Fold change vs veh, GNAQ / RFU, CDK5R1 / Fold change vs veh, CDK5R1 / RFU, ZRANB3 / Fold change vs veh, ZRANB3 / RFU, CUL4A / Fold change vs veh, CUL4A / RFU, CCNY / Fold change vs veh, CCNY / RFU, UFL1 / Fold change vs veh, UFL1 / RFU, COG3 / Fold change vs veh, COG3 / RFU, DIAPH2 / Fold change vs veh, DIAPH2 / RFU, SKA2 / Fold change vs veh, SKA2 / RFU, AFF3 / Fold change vs veh, AFF3 / RFU, LMF1 / Fold change vs veh, LMF1 / RFU, IPO11 / Fold change vs veh, IPO11 / RFU, DFFB / Fold change vs veh, DFFB / RFU, FOXP1 / Fold change vs veh, FOXP1 / RFU, CARD8 / Fold change vs veh, CARD8 / RFU, STRN3 / Fold change vs veh, STRN3 / RFU, ADK / Fold change vs veh, ADK / RFU, RASSF2 / Fold change vs veh, RASSF2 / RFU, WIPF1 / Fold change vs veh, WIPF1 / RFU, LARP1B / Fold change vs veh, LARP1B / RFU, RASA1 / Fold change vs veh, RASA1 / RFU, RB1 / Fold change vs veh, RB1 / RFU, PPFIA1 / Fold change vs veh, PPFIA1 / RFU, MAT2A / Fold change vs veh, MAT2A / RFU, CCT5 / Fold change vs veh, CCT5 / RFU, WDR92 / Fold change vs veh, WDR92 / RFU, CUX1 / Fold change vs veh, CUX1 / RFU, TTC7A / Fold change vs veh, TTC7A / RFU, TMEM135 / Fold change vs veh, TMEM135 / RFU, DEPTOR / Fold change vs veh, DEPTOR / RFU, CPM / Fold change vs veh, CPM / RFU, DNAJB6 / Fold change vs veh, DNAJB6 / RFU, CACNA2D3 / Fold change vs veh, CACNA2D3 / RFU, DTX4 / Fold change vs veh, DTX4 / RFU, TFCP2 / Fold change vs veh, TFCP2 / RFU, GMCL1 /// GMCL1P1 / Fold change vs veh, GMCL1 /// GMCL1P1 / RFU, AEBP2 / Fold change vs veh, AEBP2 / RFU, SNHG1 /// SNORD22 /// SNORD25 /// SNORD26 /// SNORD27 /// SNORD28 /// SNORD29 /// SNORD31 / Fold change vs veh, SNHG1 /// SNORD22 /// SNORD25 /// SNORD26 /// SNORD27 /// SNORD28 /// SNORD29 /// SNORD31 / Fold change (Aza/veh), C12orf56 (ProbeSet 11735607_a_at) / Fold change (ACY-1035/veh), C12orf56 (ProbeSet 11735607_a_at) / Fold change (Aza/veh), FGFR1OP (ProbeSet 11751329_s_at) / Fold change (ACY-1035/veh), FGFR1OP (ProbeSet 11751329_s_at) / Fold change (Aza/veh), VPS36 (ProbeSet 11739960_a_at) / Fold change (ACY-1035/veh), VPS36 (ProbeSet 11739960_a_at) / RFU SYPL1 (11715823_x_at) / Fold change /veh SYPL1 (11715823_x_at) / RFU IGFBP7 (11715501_s_at) / Fold change /veh IGFBP7 (11715501_s_at) / RFU REEP3 (11722064_at) / Fold change /veh REEP3 (11722064_at) / RFU IGLL1 (11728026_x_at) / Fold change /veh IGLL1 (11728026_x_at): dose or concentration left out as unconfirmed. Particulars: ProbeSet 11764057_s_at; LIST B.

As for `Nc1ccc(-c2cccs2)cc1NC(=O)c1ccc2c(c1)cc(C1CC1)n2CCN1CCOCC1` [ACY-1035], the “Fold change vs veh, C1orf63” value is given as 0.95.
